Test systems include 786-0; A549; HCT-116; HCT-15; HOP-92; IGROV-1; K562; NCI-H23; SF-539; SK-MEL-5; SN12C; SNB-19; UACC-257; CAKI-1; MCF7; MDA-MB-231; PC-3; Hs-578T.
Common to all, as to assay: NCI-60 cell line screen, 48 h

The values below come from ChEMBL document CHEMBL1201862, “PubChem BioAssay data set” (2004).

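Assay format: 96-well plates, 48-hour exposure. GI50: concentration for 50% inhibition of growth.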 Activity calls are given as the source filed them. Cut-off read from the data, not from the text of the source: active = GI50 up to about 1.1 µM and inactive = higher.

As for `COCOCCCCCO[Si](C)(C)C(C)(C)C`, the GI50 with 786-0 was 14.4 µM (inactive); in the assay with A549, 19.5 µM (inactive); with HCT-116 it was 12.9 µM (inactive); in the assay with HCT-15 it was 17.7 µM; in the assay with HOP-92, 17.7 µM (inactive); in the assay on IGROV-1, 32.6 µM (inactive). Besides, the GI50 in the assay on K562 was 26.4 µM (inactive); in the assay with NCI-H23, 17.2 µM (inactive); in the assay with SF-539, 19.1 µM (inactive); in the assay with SK-MEL-5, 16.5 µM (inactive); in the assay on SN12C it was 17.2 µM (inactive); in the assay on SNB-19 it was 16 µM (inactive). Further, the GI50 in the assay with UACC-257 was 16.5 µM (inactive).
Turning to `C#Cc1cccc(N2C(=O)CC(=P(c3ccccc3)(c3ccccc3)c3ccccc3)C2=O)c1`, the GI50 with 786-0 is 24.5 µM (inactive); in the assay on A549, 70 µM (inactive); in the assay with CAKI-1 it was > 100 µM (inactive); in the assay with HCT-116, 32.6 µM (inactive); in the assay on K562, 35.4 µM (inactive); in the assay on NCI-H23, 40.7 µM (inactive). Also, the GI50 in the assay with SK-MEL-5 was 25.6 µM (inactive); in the assay on SN12C it was > 100 µM (inactive); with SNB-19 it was 69 µM (inactive); with UACC-257 it was 51.4 µM (inactive).
Consider `Oc1ccc(/C=N/NC(=S)Nc2cccnc2)nc1`, for which the GI50 is 8.43 µM (inactive) with 786-0; 38.3 µM (inactive) in the assay on A549; 20.7 µM (inactive) in the assay on CAKI-1; 4.49 µM (inactive) in the assay on HCT-116; 5.27 µM in the assay on HCT-15; 5.38 µM (inactive) with HOP-92. For the same compound, the GI50 in the assay on IGROV-1 was 14.7 µM (inactive); in the assay with K562 it was 3.99 µM (inactive); in the assay with MCF7, 7.89 µM (inactive); with MDA-MB-231, 2.32 µM (inactive); in the assay with NCI-H23, 8.15 µM (inactive); in the assay with PC-3, > 22 µM (inactive). In addition, the GI50 in the assay with SF-539 is 4.49 µM (inactive); in the assay with SK-MEL-5, 9.59 µM (inactive); with SN12C it was 6.93 µM (inactive); in the assay on SNB-19, 22.7 µM (inactive); in the assay with UACC-257, 13.7 µM (inactive).
Consider `CC(=O)CCC(=O)CC(O)(C(F)(F)F)C(F)(F)F`, for which the GI50 was 16.2 µM (inactive) with 786-0; 20.6 µM (inactive) in the assay with A549; 16.9 µM (inactive) in the assay on HCT-116; 20.1 µM in the assay with HCT-15; 13.6 µM (inactive) in the assay with HOP-92; 14.6 µM (inactive) in the assay with Hs-578T. Further, the GI50 was 15.4 µM (inactive) in the assay with IGROV-1; 15.3 µM (inactive) in the assay with K562; 18.8 µM (inactive) with MCF7; 19.2 µM (inactive) with MDA-MB-231; 21.2 µM (inactive) in the assay with NCI-H23; 16.6 µM (inactive) with SF-539. The GI50 was 18.1 µM (inactive) in the assay on SK-MEL-5, 20.9 µM (inactive) with SN12C, 15.9 µM (inactive) with SNB-19 and 17.8 µM (inactive) with UACC-257.
`Nc1nc(Nc2ccccc2)c2[nH]cnc2n1`: the GI50 with 786-0 was > 100 µM (inactive); with A549 it was > 100 µM (inactive); with CAKI-1, 49.2 µM (inactive); in the assay with HCT-116, 69 µM (inactive); in the assay on HCT-15, 52 µM; with HOP-92, 32.2 µM (inactive). Besides, the GI50 is 32 µM (inactive) in the assay on IGROV-1; 62.5 µM (inactive) with K562; > 100 µM (inactive) in the assay on MCF7; > 100 µM (inactive) in the assay with MDA-MB-231; > 100 µM (inactive) in the assay on NCI-H23; > 100 µM (inactive) in the assay on PC-3. In addition, the GI50 in the assay on SF-539 is > 100 µM (inactive); in the assay with SK-MEL-5 it was 86.5 µM (inactive); in the assay on SN12C it was > 100 µM (inactive); in the assay on SNB-19, > 100 µM (inactive); in the assay with UACC-257, > 100 µM (inactive).
